# Assay results published in patent publication US20090142269A1, “ISOTOYPICALLY-LABELED BENZOTHIAZOLE COMPOUNDS AS IMAGING AGENTS FOR AMYLOIDOGENIC PROTEINS” (UNIVERSITY OF OITTSBURGH-OF THE COMMONWEALTH SYSTEM OF …, priority 2005, published 2009).
# Biological target: T1, synthetic Aβ(1-40) (Homo sapiens, UniProt P05067)
# T1 construct: analyzed, using synthetic Aβ(1-40)
# Assay: Competition of [3H]BTA-1 binding from synthetic Aβ(1-40)
# Conditions: in vitro, aggregated amyloid
# Description: The characteristics of benzothiazole derivative binding were analyzed, using synthetic Aβ(1-40) and 2-(4′-[^3H]methylamino-phenyl)-benzothiazole ([^3H]BTA-1) in phosphate-buffered saline (pH 7.4), as previously described. Klunk et al., Life Sci. 69:1471 (2001); Mathis et al., Bioorg. Med. Chem. Lett. 12: 295 (2002).
# The characteristics of benzothiazole derivative binding were analyzed using synthetic Aβ(1-40) and 2-(4′ [^3H]methylamino-phenyl)-benzothiazole ([^3H]BTA-1) in phosphate-buffered saline (pH 7.4), as previously described. Klunk et al., Life Sci. 69:1471 (2001); Mathis et al., Bioorg. Med. Chem. Lett., 12:295 (2002). The table below lists the inhibition constants (Ki) of exemplary benzothiazole compounds shown for competition of [^3H]BTA-1 binding from synthetic Aβ(1-40).
# T1 sequence (P05067 672-711): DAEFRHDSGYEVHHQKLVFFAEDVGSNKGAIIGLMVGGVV
row,SMILES,affinity of the ligand in vitro for aggregated amyloid
1,COc1ccc2nc(-c3ccc([18F])cc3)sc2c1 [[F-18]-6-Methoxy-2-(4′-fluorophenyl)benzothiazole],relatively high affinity

# Same assay, conditions: inhibition constant for competition of [3H]BTA-1 binding from synthetic Aβ(1-40), phosphate-buffered saline pH 7.4
row,Ki [nM],SMILES
1,7.4,CNc1ccc2nc(-c3ccc(F)cc3)sc2c1
2,6,COc1ccc2nc(-c3ccc(F)cc3)sc2c1
3,116,COc1cc(OC)c2nc(-c3ccc(F)cc3)sc2c1
4,88.3,COc1cc2nc(-c3ccc(F)cc3)sc2cc1OC
5,504,Oc1ccc2sc(-c3ccc(F)cc3)nc2c1
6,51.6,COc1cc(O)c2nc(-c3ccc(F)cc3)sc2c1
7,133,N#Cc1ccc2nc(-c3ccc(F)cc3)sc2c1
8,1270,CS(=O)(=O)c1ccc2nc(-c3ccc(F)cc3)sc2c1
9,84.8,Nc1ccc2nc(-c3ccc(F)cc3)sc2c1
10,14.8,Nc1cc(F)ccc1-c1nc2ccc(O)cc2s1
11,31.3,Oc1ccc2nc(-c3ccc(F)cc3O)sc2c1
12,130,Oc1ccc2nc(-c3ccc(F)c(Cl)c3)sc2c1
13,14.9,COc1cccc2nc(-c3ccc(F)cc3)sc12
14,19.6,Nc1ccccc1-c1nc2ccccc2s1
15,811,O=[N+]([O-])c1cc(F)ccc1-c1nc2ccccc2s1
16,8.8,Brc1ccc(-c2nc3ccccc3s2)cc1

row,Ki [nM],SMILES
1,19.1,Cc1ccc(-c2nc3ccccc3s2)cc1
2,43.8,Fc1ccc(-c2nc3ccccc3s2)cc1
3,2.6,Ic1ccc(-c2nc3ccccc3s2)cc1
4,1000,Nc1c(F)c(F)c(-c2nc3ccc(O)cc3s2)c(F)c1F
5,273,CNc1c(F)c(F)c(-c2nc3ccc(O)cc3s2)c(F)c1F
6,26,CNc1c(F)c(F)c(-c2nc3ccc(OC)cc3s2)c(F)c1F
7,21.8,Nc1ccc(F)cc1-c1nc2ccc(O)cc2s1
8,14,Nc1cccc(F)c1-c1nc2ccc(O)cc2s1
9,1.3,COc1ccc(-c2nc3ccc(N(C)C)cc3s2)cc1
10,1.8,CNc1ccc2nc(-c3ccc(OC)cc3)sc2c1
11,4.9,CNc1ccc(-c2nc3ccc(OCCOCCOCCF)cc3s2)cc1
12,94.9,CNc1cc(N)ccc1-c1nc2ccc(O)cc2s1
13,76.9,CNc1ccc(-c2nc3ccccc3s2)cc1CCCF
14,1.2,CNc1ccc2nc(-c3ccc(O)cc3F)sc2c1
15,5.3,CNc1ccc2nc(-c3ccc(O)c(F)c3)sc2c1

# Continued, compound first:
row,SMILES,Ki [nM]
1,COc1ccc2sc(-c3ccc(F)cc3)nc2c1,13.5
2,COc1ccc2nc(-c3ccc(F)cc3O)sc2c1,1.1
3,COc1ccc2sc(-c3ccc(F)cc3)nc2c1OC,81.2
4,COc1ccc(OC)c2sc(-c3ccc(F)cc3)nc12,334
5,COc1cccc2sc(-c3ccc(F)cc3)nc12,608
6,Oc1cccc2sc(-c3ccc(F)cc3)nc12,381
7,COc1cc(OC)c2sc(-c3ccc(F)cc3)nc2c1,33.5
8,COc1ccc2nc(-c3ccc(F)cc3OC)sc2c1,16.6
9,COc1ccc2nc(-c3ccc(F)c(F)c3)sc2c1,154
10,FCCOc1ccc2nc(-c3ccc(F)cc3)sc2c1,9.8
11,FCCCOc1ccc2nc(-c3ccc(F)cc3)sc2c1,27.2
12,Oc1ccc2nc(-c3ccc(F)c(F)c3)sc2c1,18.9
13,Oc1ccc2nc(-c3ccc(CF)cc3)sc2c1,46.6
14,OCc1ccc(-c2nc3ccc(O)cc3s2)cc1,311
15,Oc1ccc2nc(-c3ccc(F)cc3)sc2c1,180
16,Oc1cccc2nc(-c3ccc(F)cc3)sc12,186
17,Nc1cc(F)ccc1-c1nc2ccccc2s1,4.9
18,COc1ccc2nc(-c3c(F)c(F)c(N)c(F)c3F)sc2c1,119
19,Nc1c(F)cccc1-c1nc2ccc(O)cc2s1,3.1
20,CN(C)c1ccc2nc(-c3ccc(O)cc3)sc2c1,10.7
21,CNc1c(F)cccc1-c1nc2ccc(O)cc2s1,46
22,CNc1cc(F)ccc1-c1nc2ccc(O)cc2s1,48.8
23,CNc1ccc(-c2nc3ccc(O)cc3s2)c(N)c1,5.4

# System: not listed separately
# Assay: Baboon brain entry study (PET time-activity curves)
# Format: in vivo
# Conditions: 40 kg baboon, 8 mCi intravenously, PET brain imaging over 2 h post injection
# Description: A 40 kg baboon was anesthesized, immobilized, and placed on a ventilator. The baboon was positioned in a PET scanner to image the brain, and a transmission scan was performed to correct for attenuation. The baboon was injected intravenously with a solution containing 8 mCi of [F-18]-6-Methoxy-2-(4′-fluorophenyl)benzothiazole, and the brain was imaged in a series of increasing data collection time bins over 2 h post injection. Following data acquisition, the images were reconstructed and regions of interest were drawn. Decay and […] corrected time-activity curves (TAC) were generated for each of the regions to determine the quantitative time course of radioactivity in each brain region.
SMILES,brain penetration of the radiotracer,clearance of radioactivity from normal baboon brain
COc1ccc2nc(-c3ccc([18F])cc3)sc2c1 [[F-18]-6-Methoxy-2-(4′-fluorophenyl)benzothiazole],excellent brain penetration,rapid clearance
